Holding throughout (assay type): biochemical
Test [1] deals with T1, LRRK2 (G2019S mutation, GST-LRRK2 (amino acids 970-2527)) (Homo sapiens, UniProt Q5S007, G2019S).
T1 construct: GST-LRRK2 (amino acids 970-2527); GST (N); purchased Life Technologies Corporation
The experiment in a line: LRRK2 Km ATP LanthaScreen Assay. To be noted: mean IC50. As to the method:
Unless otherwise noted, all LRRK2 IC50 data presented in tables refers to the LRRK2 Km ATP LanthaScreen™ Assay that is described in the Biological Assay section.
(§1) The data presented for the 5 mM and Km ATP LanthaScreen™ Assay represents mean IC50 values based on several test results and may have reasonable. deviations depending on the specific conditions and reagents used. Reagents for the LRRK2 5 mM and Km ATP LanthaScreen™ Assay were purchased from Life Technologies Corporation.
• a) 400 nl of a 1:2.15 serial dilution of test compound (98 μM top assay concentration) is spotted via Labcyte Echo to certain wells in a 384 well black, untreated plate. Control wells contain 400 nl of either DMSO or 400 nl of a known inhibitor in DMSO. • b) 10 μl of a 2.5 nM LRRK2 (G2019S mutation, GST-LRRK2 (amino acids 970-2527)) enzyme solution in 1× assay buffer (50 mM Tris pH 8.5, 10 mM MgCl2, 0.01% Brij-35, 1.0 mM EGTA, 2 mM DTT, 0.05 mM NaVO4) is added to all wells. • c) A 30 minute room temperature incubation is followed by addition of 10 μl […]) After a 35 minute room temperature incubation, 20 μl of TR-FRET Dilution Buffer (Invitrogen PV3756B) containing 4 nM Tb-labeled anti-phospho LRRKtide antibody and 20 mM EDTA is added to all wells. • e) Plates are incubated at room temperature for 1 hour and read on an Envision™ multi-mode plate reader with LanthaScreen™ settings. Results are analysed using Assay Data Analyzer. […] Results are analysed using Assay Data Analyzer.

Test [2] has as its target T1, LRRK2 (G2019S mutation, GST-LRRK2 (amino acids 970-2527)). In words: LRRK2 5 mM ATP LanthaScreen Assay. Particulars: mean IC50. As for the experimental part: as §1
LRRK2 5 mM ATP LanthaScreen™ Assay
• a) 400 nl of a 1:2.15 serial dilution of test compound (98 μM top assay concentration) is spotted via Labcyte Echo to certain wells in a 384 well black, untreated plate. Control wells contain 400 nl of either DMSO or 400 nl of a known inhibitor in DMSO. • b) 10 μl of a 2.5 nM LRRK2 (G2019S mutation, GST-LRRK2 (amino acids 970-2527)) enzyme solution in 1× assay buffer (50 mM Tris pH 8.5, 10 mM MgCl2, 0.01% Brij-35, 1.0 mM EGTA, 2 mM DTT, 0.05 mM NaVO4) is added to all wells. • c) A 30 minute room temperature incubation is followed by addition of 10 μl of 800 nM fluorescein labeled LRRKtide peptide substrate and 10 mM ATP solution in 1× assay buffer to all wells. • d) After a 35 minute room temperature incubation, 20 μl of TR-FRET Dilution Buffer (Invitrogen PV3756B) containing 4 nM Tb-labeled anti-phospho LRRKtide antibody and 20 mM EDTA is added to all wells. • e) Plates are incubated at room temperature for 1 hour and read on an Envision™ multi-mode plate reader with LanthaScreen™ settings. Results are analysed using Assay Data Analyzer. […] Results are analysed using Assay Data Analyzer.

The next test addresses T2, AURKB (Aurora B) (Homo sapiens, UniProt Q96GD4).
T2 construct: purchased Life Technologies Corporation
The experiment in a line: Kinase selectivity, Z'-LYTE platform. To be noted: 1 micromolar compound, read-out: percent inhibition AURKB (Aurora B).

The target of the next test is T3, BRAF V599E (Homo sapiens, UniProt P15056, V600E).
T3 construct: purchased Life Technologies Corporation
The experiment in a line: Kinase selectivity, Z'-LYTE platform. To be noted: 1 micromolar compound, read-out: percent inhibition BRAF V599E.

The target of another test is T4, CDK1/cyclin B (Homo sapiens, UniProt P06493).
T4 construct: purchased Life Technologies Corporation
The experiment in a line: Kinase selectivity, Z'-LYTE platform. Particulars: 1 micromolar compound, read-out: percent inhibition CDK1/cyclin B.

A further test addresses T5, CHEK2 (CHK2) (Homo sapiens, UniProt O96017).
T5 construct: purchased Life Technologies Corporation
In words: Kinase selectivity, Z'-LYTE platform. To be noted: 1 micromolar compound, read-out: percent inhibition CHEK2 (CHK2).

In the next test the target is T6, CLK2 (Homo sapiens, UniProt P49760).
T6 construct: purchased Life Technologies Corporation
The experiment in a line: Kinase selectivity, Z'-LYTE platform. Particulars: 1 micromolar compound, read-out: percent inhibition CLK2.

For another test, the target named is T7, DYRK1A (Homo sapiens, UniProt Q13627).
T7 construct: purchased Life Technologies Corporation
In words: Kinase selectivity, Z'-LYTE platform. Particulars: 1 micromolar compound, read-out: percent inhibition DYRK1A.

For another test, the target named is T8, IRAK1 (Homo sapiens, UniProt P51617).
T8 construct: purchased Life Technologies Corporation
The experiment in a line: Kinase selectivity, Adapta platform. Particulars: 1 micromolar compound, read-out: percent inhibition IRAK1.

The next test has as its target T9, JAK3 (Homo sapiens, UniProt P52333).
T9 construct: purchased Life Technologies Corporation
T9 sequence (P52333 1-1124): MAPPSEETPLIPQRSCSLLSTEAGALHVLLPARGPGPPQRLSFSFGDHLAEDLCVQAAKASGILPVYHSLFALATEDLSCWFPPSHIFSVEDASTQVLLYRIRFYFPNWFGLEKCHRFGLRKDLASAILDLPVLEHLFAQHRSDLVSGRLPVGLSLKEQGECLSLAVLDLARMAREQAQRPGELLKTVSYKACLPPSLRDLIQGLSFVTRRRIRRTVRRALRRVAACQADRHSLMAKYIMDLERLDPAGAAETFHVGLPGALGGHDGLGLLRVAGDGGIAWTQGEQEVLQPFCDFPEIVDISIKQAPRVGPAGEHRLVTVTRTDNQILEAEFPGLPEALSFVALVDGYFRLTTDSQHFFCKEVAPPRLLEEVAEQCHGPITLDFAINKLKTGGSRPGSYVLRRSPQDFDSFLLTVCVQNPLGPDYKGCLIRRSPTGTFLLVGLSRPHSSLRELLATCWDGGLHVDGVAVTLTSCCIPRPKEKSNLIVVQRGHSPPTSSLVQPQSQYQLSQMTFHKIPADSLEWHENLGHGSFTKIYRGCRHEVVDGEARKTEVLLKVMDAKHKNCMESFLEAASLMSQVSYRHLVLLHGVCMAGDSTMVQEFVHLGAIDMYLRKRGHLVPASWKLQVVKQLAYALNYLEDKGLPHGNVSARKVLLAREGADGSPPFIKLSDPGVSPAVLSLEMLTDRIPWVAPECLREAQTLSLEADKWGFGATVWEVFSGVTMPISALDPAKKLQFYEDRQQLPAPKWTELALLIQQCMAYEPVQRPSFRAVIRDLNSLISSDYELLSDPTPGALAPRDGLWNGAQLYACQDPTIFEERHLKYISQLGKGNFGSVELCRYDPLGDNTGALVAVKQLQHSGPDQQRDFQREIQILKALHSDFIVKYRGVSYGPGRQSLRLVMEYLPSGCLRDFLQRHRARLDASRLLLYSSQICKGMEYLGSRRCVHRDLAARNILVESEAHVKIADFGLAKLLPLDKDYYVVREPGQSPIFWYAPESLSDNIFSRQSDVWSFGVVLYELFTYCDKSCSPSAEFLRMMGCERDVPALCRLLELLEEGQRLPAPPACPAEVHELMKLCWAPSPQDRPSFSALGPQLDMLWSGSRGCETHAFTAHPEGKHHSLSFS
In words: Kinase selectivity, Z'-LYTE platform. Particulars: 1 micromolar compound, read-out: percent inhibition JAK3.

A further test concerns the target T10, MAPK1 (ERK2) (Homo sapiens, UniProt P28482).
T10 construct: purchased Life Technologies Corporation
The experiment in a line: Kinase selectivity, Z'-LYTE platform. Particulars: 1 micromolar compound, read-out: percent inhibition MAPK1 (ERK2).

In the next test the target is T11, MAPK8 (JNK1) (Homo sapiens, UniProt P45983).
T11 construct: purchased Life Technologies Corporation
The experiment in a line: Kinase selectivity, Z'-LYTE platform. Particulars: 1 micromolar compound, read-out: percent inhibition MAPK8 (JNK1).

The text below walks through data of patent US9688654B2, “Compounds inhibiting leucine-rich repeat kinase enzyme activity” (Merck Sharp & Dohme Corp., priority 2013, dated 2017).

Molecules are shown by their SMILES. pIC50: −log10 of the molar value.

T1 sequence (Q5S007 970-2527 G2019S): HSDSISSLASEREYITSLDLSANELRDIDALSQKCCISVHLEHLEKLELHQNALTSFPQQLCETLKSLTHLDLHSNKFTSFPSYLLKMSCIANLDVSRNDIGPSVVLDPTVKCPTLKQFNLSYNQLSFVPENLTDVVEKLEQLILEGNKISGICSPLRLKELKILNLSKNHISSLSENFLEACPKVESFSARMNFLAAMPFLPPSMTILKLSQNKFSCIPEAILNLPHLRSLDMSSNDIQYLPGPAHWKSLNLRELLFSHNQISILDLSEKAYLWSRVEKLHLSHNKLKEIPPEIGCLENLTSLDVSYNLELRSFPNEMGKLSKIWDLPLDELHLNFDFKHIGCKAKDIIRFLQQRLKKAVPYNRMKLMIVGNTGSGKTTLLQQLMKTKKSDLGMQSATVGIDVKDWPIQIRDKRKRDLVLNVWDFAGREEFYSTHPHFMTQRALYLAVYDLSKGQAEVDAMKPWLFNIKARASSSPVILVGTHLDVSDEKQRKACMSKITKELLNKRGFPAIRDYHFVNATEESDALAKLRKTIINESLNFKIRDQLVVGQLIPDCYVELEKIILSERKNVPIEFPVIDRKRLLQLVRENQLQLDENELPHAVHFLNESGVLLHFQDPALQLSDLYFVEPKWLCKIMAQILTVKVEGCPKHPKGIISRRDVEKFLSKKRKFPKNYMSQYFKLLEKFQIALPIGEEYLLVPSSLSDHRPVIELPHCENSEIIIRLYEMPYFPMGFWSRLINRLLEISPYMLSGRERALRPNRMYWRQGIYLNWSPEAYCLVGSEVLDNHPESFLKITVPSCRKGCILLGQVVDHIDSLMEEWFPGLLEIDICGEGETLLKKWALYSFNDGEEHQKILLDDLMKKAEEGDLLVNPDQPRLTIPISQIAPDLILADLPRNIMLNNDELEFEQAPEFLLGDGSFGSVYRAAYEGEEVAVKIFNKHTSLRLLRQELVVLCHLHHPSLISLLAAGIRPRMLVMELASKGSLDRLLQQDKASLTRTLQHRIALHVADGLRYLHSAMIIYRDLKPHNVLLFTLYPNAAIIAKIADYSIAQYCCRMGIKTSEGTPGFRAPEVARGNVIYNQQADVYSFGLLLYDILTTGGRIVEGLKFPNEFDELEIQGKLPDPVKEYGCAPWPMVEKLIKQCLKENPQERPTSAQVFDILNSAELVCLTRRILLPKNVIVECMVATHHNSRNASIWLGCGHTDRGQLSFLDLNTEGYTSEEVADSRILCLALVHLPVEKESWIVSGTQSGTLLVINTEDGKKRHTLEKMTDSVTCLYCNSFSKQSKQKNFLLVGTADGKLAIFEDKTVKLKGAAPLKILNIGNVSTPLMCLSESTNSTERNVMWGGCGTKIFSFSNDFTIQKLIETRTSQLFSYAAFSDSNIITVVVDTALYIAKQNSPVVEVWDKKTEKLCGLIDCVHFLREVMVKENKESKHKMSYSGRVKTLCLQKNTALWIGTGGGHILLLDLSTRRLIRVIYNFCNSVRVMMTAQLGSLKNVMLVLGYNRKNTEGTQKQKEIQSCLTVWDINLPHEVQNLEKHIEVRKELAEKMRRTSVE
T4 sequence (P06493 whole entry): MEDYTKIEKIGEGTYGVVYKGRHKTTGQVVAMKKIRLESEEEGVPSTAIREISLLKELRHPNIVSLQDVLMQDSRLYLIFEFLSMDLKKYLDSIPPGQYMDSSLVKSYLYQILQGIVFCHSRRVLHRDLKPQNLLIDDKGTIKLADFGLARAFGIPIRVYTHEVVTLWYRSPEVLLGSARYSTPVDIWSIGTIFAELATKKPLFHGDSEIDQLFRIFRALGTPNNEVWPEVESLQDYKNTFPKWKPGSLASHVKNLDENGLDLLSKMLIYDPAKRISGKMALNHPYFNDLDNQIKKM
T4 sequence (P14635 whole entry partner): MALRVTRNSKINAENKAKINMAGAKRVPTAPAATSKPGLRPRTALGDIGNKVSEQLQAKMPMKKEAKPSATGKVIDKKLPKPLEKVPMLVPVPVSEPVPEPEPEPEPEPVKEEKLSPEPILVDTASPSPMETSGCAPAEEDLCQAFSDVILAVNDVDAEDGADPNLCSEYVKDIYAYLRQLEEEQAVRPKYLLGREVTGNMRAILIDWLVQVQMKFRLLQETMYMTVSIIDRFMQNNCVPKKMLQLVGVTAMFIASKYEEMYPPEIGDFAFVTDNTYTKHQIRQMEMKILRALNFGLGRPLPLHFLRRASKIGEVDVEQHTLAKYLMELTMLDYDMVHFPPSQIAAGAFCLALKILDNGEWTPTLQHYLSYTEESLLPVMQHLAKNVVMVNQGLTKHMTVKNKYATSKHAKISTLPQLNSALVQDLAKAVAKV
T5 sequence (O96017 whole entry): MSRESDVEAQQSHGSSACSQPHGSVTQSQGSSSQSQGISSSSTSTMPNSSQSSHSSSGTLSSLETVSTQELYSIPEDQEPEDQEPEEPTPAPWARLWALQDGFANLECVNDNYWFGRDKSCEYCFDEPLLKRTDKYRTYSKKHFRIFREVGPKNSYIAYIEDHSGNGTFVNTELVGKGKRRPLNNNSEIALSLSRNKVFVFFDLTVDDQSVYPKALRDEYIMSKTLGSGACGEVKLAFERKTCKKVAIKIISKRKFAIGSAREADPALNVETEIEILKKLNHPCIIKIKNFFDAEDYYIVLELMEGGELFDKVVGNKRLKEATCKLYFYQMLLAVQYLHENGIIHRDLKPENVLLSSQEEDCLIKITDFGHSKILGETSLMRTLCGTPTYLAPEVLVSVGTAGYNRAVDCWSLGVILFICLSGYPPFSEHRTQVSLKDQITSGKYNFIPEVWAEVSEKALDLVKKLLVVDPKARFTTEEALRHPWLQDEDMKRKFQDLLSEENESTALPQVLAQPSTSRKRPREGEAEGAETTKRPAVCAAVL
T11 sequence (P45983 whole entry): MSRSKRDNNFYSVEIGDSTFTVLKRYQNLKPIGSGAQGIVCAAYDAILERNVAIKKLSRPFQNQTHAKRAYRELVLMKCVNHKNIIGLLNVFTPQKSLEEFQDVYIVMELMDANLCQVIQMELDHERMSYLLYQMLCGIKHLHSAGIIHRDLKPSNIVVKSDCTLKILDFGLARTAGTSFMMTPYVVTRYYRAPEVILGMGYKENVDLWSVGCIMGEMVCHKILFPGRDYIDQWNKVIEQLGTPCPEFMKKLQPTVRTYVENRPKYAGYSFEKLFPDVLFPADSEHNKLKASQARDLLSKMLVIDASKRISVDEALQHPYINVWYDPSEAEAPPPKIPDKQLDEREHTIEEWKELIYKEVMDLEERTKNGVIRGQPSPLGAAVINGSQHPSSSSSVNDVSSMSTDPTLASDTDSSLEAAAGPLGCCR
T3 sequence (P15056 whole entry V600E): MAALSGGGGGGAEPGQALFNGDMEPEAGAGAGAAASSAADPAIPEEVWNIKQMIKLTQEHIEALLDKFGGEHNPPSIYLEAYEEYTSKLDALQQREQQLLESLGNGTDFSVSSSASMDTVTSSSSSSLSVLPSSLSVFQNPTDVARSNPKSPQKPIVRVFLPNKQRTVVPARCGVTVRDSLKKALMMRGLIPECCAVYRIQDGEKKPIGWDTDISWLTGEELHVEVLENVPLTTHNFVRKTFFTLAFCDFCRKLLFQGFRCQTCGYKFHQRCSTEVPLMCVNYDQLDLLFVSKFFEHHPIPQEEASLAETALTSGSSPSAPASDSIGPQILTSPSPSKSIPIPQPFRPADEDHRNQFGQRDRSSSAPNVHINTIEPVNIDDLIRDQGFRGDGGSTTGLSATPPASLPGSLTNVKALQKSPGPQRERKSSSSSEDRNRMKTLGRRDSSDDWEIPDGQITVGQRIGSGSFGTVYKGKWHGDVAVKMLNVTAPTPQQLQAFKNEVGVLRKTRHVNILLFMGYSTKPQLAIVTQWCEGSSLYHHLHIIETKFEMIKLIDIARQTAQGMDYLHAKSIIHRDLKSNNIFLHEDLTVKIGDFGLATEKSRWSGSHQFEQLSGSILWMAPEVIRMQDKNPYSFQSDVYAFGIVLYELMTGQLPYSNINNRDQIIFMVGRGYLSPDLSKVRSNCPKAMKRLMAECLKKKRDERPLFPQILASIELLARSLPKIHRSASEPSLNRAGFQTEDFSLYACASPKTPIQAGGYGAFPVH
T10 sequence (P28482 whole entry): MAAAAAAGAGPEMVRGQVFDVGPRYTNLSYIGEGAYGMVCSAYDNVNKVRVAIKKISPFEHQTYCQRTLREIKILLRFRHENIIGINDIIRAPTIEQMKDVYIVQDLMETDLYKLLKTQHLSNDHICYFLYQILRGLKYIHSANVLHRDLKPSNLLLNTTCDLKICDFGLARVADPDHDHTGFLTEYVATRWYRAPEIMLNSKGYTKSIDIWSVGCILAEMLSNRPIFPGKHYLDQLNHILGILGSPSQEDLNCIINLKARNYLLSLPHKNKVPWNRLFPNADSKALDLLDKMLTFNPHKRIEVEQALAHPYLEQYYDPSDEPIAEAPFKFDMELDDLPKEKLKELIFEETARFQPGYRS
T6 sequence (P49760 whole entry): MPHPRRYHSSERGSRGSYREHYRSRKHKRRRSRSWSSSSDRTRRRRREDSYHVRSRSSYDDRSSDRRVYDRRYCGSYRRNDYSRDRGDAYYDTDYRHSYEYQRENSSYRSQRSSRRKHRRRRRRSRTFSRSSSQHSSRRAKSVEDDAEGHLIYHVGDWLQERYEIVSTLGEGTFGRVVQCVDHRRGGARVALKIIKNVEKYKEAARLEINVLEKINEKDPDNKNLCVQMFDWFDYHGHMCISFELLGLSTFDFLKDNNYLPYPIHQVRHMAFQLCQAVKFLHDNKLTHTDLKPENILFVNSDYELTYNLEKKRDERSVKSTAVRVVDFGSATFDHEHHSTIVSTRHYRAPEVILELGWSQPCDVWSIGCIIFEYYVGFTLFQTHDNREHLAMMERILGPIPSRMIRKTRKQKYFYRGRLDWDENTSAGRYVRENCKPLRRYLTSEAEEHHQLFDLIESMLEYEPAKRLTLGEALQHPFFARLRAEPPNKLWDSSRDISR

With `c1cc(-c2n[nH]c3ccc(OC4CC4)cc23)cc(N2CCN(C3CC3)CC2)n1` [Example 26], the pIC50 (in general, the IC50 on a negative log10 scale, so that one unit is a factor of ten) in test [1] is 7.92; in test [2] it was 6.52.

Consider `c1cc(-c2n[nH]c3ccc(OC4CC4)cc23)cc(N2CCC2)n1` [Example 9], for which the negative-log IC50 (pIC50) in [1] is 7.80; in test [2], 6.65.

For the compound `CCc1nnc2n1CCN(c1cc(-c3n[nH]c4ccc(OC5CC5)cc34)ccn1)C2` [Example 23], the negative logarithm of the IC50 (pIC50) in test [1] was 7.92; in test [2] it was 6.53.

For the compound `C[C@@H]1CN(c2cc(-c3n[nH]c4ccc(OC5(C)CC5)cc34)ccn2)C[C@H](C)O1` [Example 30], the pIC50 in [1] is 9.05. Further, the inhibition at 1 µM on AURKB (Aurora B) turned out to be 6%; at BRAF V599E, 5%; on CDK1/cyclin B, 9%; at CHEK2 (CHK2) it was 8%; at CLK2, 49%; at DYRK1A, 3%. The inhibition at 1 µM at IRAK1 was -17%; at JAK3 it was 37%; on MAPK1 (ERK2) it was 10%; on MAPK8 (JNK1) it was 39%.
